# Test results from article PMC5433425 (PeerJ, 2017).
# Values joined by “and” are separate entries in the source; they are usually repeats but may differ in a detail not shown here. Equal values may be shown once. Read-outs that look alike come from different tables or passages of the source. Peptide text beside a SMILES is read from it. * marks the point of attachment. βNA = c1ccc2cc(N*)ccc2c1
# What was measured:
# [1] = test system: E. coli K-12 AG100 (wild-type); assay: MIC, broth microdilution; type: cell-based; settings: Escherichia coli
# [2] = test system: E. coli AG100A; settings: EtBr […] + inhibitor 20 µM
# [3] = test system: E. coli AG100; assay: EtBr efflux by real-time fluorometry; settings: for EtBr fluorescence (Channel Cycling A.530/585hp): 80 µM
# Experimental: Control tubes with only cells and cells with and without 0.4% glucose were included. The fluorescence was measured in a Rotor-Gene 3000 and the data was acquired every 30 s for 30 min at 37 °C. The efflux activity was quantified by comparing the fluorescence data obtained under conditions that promote efflux (presence of glucose and absence of efflux inhibitor) with the data from the control in which the bacteria are under conditions of no efflux (presence of an inhibitor and no energy source).
# [4] = test system: E. coli AG100A (AcrAB pump-deficient); assay: MIC, broth microdilution; type: cell-based, Escherichia coli; settings: Escherichia coli
# [5] = test system: E. coli AG100tet (AcrAB overexpressing); assay: MIC, broth microdilution; type: cell-based, Escherichia coli; settings: Escherichia coli
structure (smiles),measurement,setting,value
NC(N)=NCCC[C@H](NC(=O)[C@@H](N)Cc1ccccc1)C(=O)Nc1ccc2ccccc2c1 [PAβN] (H-Phe-Arg-βNA),MIC,[1],> 200 µg/mL and > 385 µM
same,EtBr fluorescence,[2]; cycle 1,2.806
same,EtBr fluorescence,[2]; cycle 2,3.199
same,EtBr fluorescence,[2]; cycle 3,3.493
same,EtBr fluorescence,[2]; cycle 4,3.706
same,EtBr fluorescence,[2]; cycle 5,3.997
same,EtBr fluorescence,[2]; cycle 6,4.263
same,EtBr fluorescence,[2]; cycle 7,4.462
same,EtBr fluorescence,[2]; cycle 8,4.698
same,EtBr fluorescence,[2]; cycle 9,5.01
same,EtBr fluorescence,[2]; cycle 10,5.162
same,EtBr fluorescence,[2]; cycle 11,5.32
same,EtBr fluorescence,[2]; cycle 12,5.607
same,EtBr fluorescence,[2]; cycle 13,5.848
same,EtBr fluorescence,[2]; cycle 14,6.013
same,EtBr fluorescence,[2]; cycle 15,6.228
same,EtBr fluorescence,[2]; cycle 16,6.479
same,EtBr fluorescence,[2]; cycle 17,6.607
same,EtBr fluorescence,[2]; cycle 18,6.927
same,EtBr fluorescence,[2]; cycle 19,6.923
same,EtBr fluorescence,[2]; cycle 20,7.2698
same,EtBr fluorescence,[2]; cycle 21,7.508
same,EtBr fluorescence,[2]; cycle 22,7.627
same,EtBr fluorescence,[2]; cycle 23,7.913
same,EtBr fluorescence,[2]; cycle 24,7.996
same,EtBr fluorescence,[2]; cycle 25,8.302
same,EtBr fluorescence,[2]; cycle 26,8.33
same,EtBr fluorescence,[2]; cycle 27,8.55
same,EtBr fluorescence,[2]; cycle 28,8.862
same,EtBr fluorescence,[2]; cycle 29,8.894
same,EtBr fluorescence,[2]; cycle 30,9.1148
same,inhibition of EtBr efflux,"[3]; AG100, AG100A and AG100tet (Fig. 2), 80 μM (20 μM for AG100A), glucose, 37 °C",to a lesser extent
same,EtBr fluorescence (Channel Cycling A.530/585hp),"[3]; cycle 1, + glucose",2.175
same,EtBr fluorescence (Channel Cycling A.530/585hp),"[3]; cycle 1, without glucose",1.796
same,EtBr fluorescence (Channel Cycling A.530/585hp),"[3]; cycle 2, + glucose",1.889
same,EtBr fluorescence (Channel Cycling A.530/585hp),"[3]; cycle 2, without glucose",1.72
same,EtBr fluorescence (Channel Cycling A.530/585hp),"[3]; cycle 3, + glucose",1.756
same,EtBr fluorescence (Channel Cycling A.530/585hp),"[3]; cycle 3, without glucose",1.635
same,EtBr fluorescence (Channel Cycling A.530/585hp),"[3]; cycle 4, without glucose",1.556
same,EtBr fluorescence (Channel Cycling A.530/585hp),"[3]; cycle 5, without glucose",1.502
same,EtBr fluorescence (Channel Cycling A.530/585hp),"[3]; cycle 6, without glucose",1.4519
same,EtBr fluorescence (Channel Cycling A.530/585hp),"[3]; cycle 7, without glucose",1.472
same,EtBr fluorescence (Channel Cycling A.530/585hp),"[3]; cycle 8, without glucose",1.378
same,EtBr fluorescence (Channel Cycling A.530/585hp),"[3]; cycle 9, + glucose",1.339
same,EtBr fluorescence (Channel Cycling A.530/585hp),"[3]; cycle 9, without glucose",1.359
same,EtBr fluorescence (Channel Cycling A.530/585hp),"[3]; cycle 10, + glucose",1.264
same,EtBr fluorescence (Channel Cycling A.530/585hp),"[3]; cycle 10, without glucose",1.368
same,EtBr fluorescence (Channel Cycling A.530/585hp),"[3]; cycle 11, + glucose",1.2447
same,EtBr fluorescence (Channel Cycling A.530/585hp),"[3]; cycle 11, without glucose",1.355
same,EtBr fluorescence (Channel Cycling A.530/585hp),"[3]; cycle 12, + glucose",1.251
same,EtBr fluorescence (Channel Cycling A.530/585hp),"[3]; cycle 12, without glucose",1.312
same,EtBr fluorescence (Channel Cycling A.530/585hp),"[3]; cycle 13, + glucose",1.259
same,EtBr fluorescence (Channel Cycling A.530/585hp),"[3]; cycle 13, without glucose",1.3469
same,EtBr fluorescence (Channel Cycling A.530/585hp),"[3]; cycle 14, + glucose",1.222
same,EtBr fluorescence (Channel Cycling A.530/585hp),"[3]; cycle 14, without glucose",1.257
same,EtBr fluorescence (Channel Cycling A.530/585hp),"[3]; cycle 15, + glucose",1.22
same,EtBr fluorescence (Channel Cycling A.530/585hp),"[3]; cycle 15, without glucose",1.235
same,EtBr fluorescence (Channel Cycling A.530/585hp),"[3]; cycle 16, + glucose",1.167
same,EtBr fluorescence (Channel Cycling A.530/585hp),"[3]; cycle 16, without glucose",1.232
same,EtBr fluorescence (Channel Cycling A.530/585hp),"[3]; cycle 17, + glucose",1.194
same,EtBr fluorescence (Channel Cycling A.530/585hp),"[3]; cycle 17, without glucose",1.242
same,EtBr fluorescence (Channel Cycling A.530/585hp),"[3]; cycle 18, + glucose",1.167
same,EtBr fluorescence (Channel Cycling A.530/585hp),"[3]; cycle 18, without glucose",1.283
same,EtBr fluorescence (Channel Cycling A.530/585hp),"[3]; cycle 19, + glucose",1.179
same,EtBr fluorescence (Channel Cycling A.530/585hp),"[3]; cycle 19, without glucose",1.241
same,EtBr fluorescence (Channel Cycling A.530/585hp),"[3]; cycle 20, + glucose",1.201
same,EtBr fluorescence (Channel Cycling A.530/585hp),"[3]; cycle 20, without glucose",1.199
same,EtBr fluorescence (Channel Cycling A.530/585hp),"[3]; cycle 21, + glucose",1.201
same,EtBr fluorescence (Channel Cycling A.530/585hp),"[3]; cycle 21, without glucose",1.185
same,EtBr fluorescence (Channel Cycling A.530/585hp),"[3]; cycle 22, + glucose",1.145
same,EtBr fluorescence (Channel Cycling A.530/585hp),"[3]; cycle 22, without glucose",1.19
same,EtBr fluorescence (Channel Cycling A.530/585hp),"[3]; cycle 23, + glucose",1.181
same,EtBr fluorescence (Channel Cycling A.530/585hp),"[3]; cycle 23, without glucose",1.1696
same,EtBr fluorescence (Channel Cycling A.530/585hp),"[3]; cycle 24, + glucose",1.1726
same,EtBr fluorescence (Channel Cycling A.530/585hp),"[3]; cycle 24, without glucose",1.092
same,EtBr fluorescence (Channel Cycling A.530/585hp),"[3]; cycle 25, + glucose",1.158
same,EtBr fluorescence (Channel Cycling A.530/585hp),"[3]; cycle 25, without glucose",1.1723
same,EtBr fluorescence (Channel Cycling A.530/585hp),"[3]; cycle 26, + glucose",1.17
same,EtBr fluorescence (Channel Cycling A.530/585hp),"[3]; cycle 26, without glucose",1.164
same,EtBr fluorescence (Channel Cycling A.530/585hp),"[3]; cycle 27, + glucose",1.169
same,EtBr fluorescence (Channel Cycling A.530/585hp),"[3]; cycle 27, without glucose",1.126
same,EtBr fluorescence (Channel Cycling A.530/585hp),"[3]; cycle 28, + glucose",1.177
same,EtBr fluorescence (Channel Cycling A.530/585hp),"[3]; cycle 28, without glucose",1.147
same,EtBr fluorescence (Channel Cycling A.530/585hp),"[3]; cycle 29, + glucose",1.1781
same,EtBr fluorescence (Channel Cycling A.530/585hp),"[3]; cycle 29, without glucose",1.123
same,EtBr fluorescence (Channel Cycling A.530/585hp),"[3]; cycle 30, + glucose",1.125
same,EtBr fluorescence (Channel Cycling A.530/585hp),"[3]; cycle 30, without glucose",1.105
same,EtBr fluorescence (Channel Cycling A.530/585hp),"[3]; cycle 31, + glucose",1.166
same,EtBr fluorescence (Channel Cycling A.530/585hp),"[3]; cycle 31, without glucose",1.145
same,EtBr fluorescence (Channel Cycling A.530/585hp),"[3]; cycle 32, + glucose",1.148
same,EtBr fluorescence (Channel Cycling A.530/585hp),"[3]; cycle 32, without glucose",1.083
same,EtBr fluorescence (Channel Cycling A.530/585hp),"[3]; cycle 33, + glucose",1.1593
same,EtBr fluorescence (Channel Cycling A.530/585hp),"[3]; cycle 33, without glucose",1.053
same,EtBr fluorescence (Channel Cycling A.530/585hp),"[3]; cycle 34, + glucose",1.173
same,EtBr fluorescence (Channel Cycling A.530/585hp),"[3]; cycle 34, without glucose",1.055
same,EtBr fluorescence (Channel Cycling A.530/585hp),"[3]; cycle 35, + glucose",1.1603
same,EtBr fluorescence (Channel Cycling A.530/585hp),"[3]; cycle 35, without glucose",1.086
same,EtBr fluorescence (Channel Cycling A.530/585hp),"[3]; cycle 36, + glucose",1.157
same,EtBr fluorescence (Channel Cycling A.530/585hp),"[3]; cycle 36, without glucose",1.095
same,EtBr fluorescence (Channel Cycling A.530/585hp),"[3]; cycle 37, + glucose",1.1393
same,EtBr fluorescence (Channel Cycling A.530/585hp),"[3]; cycle 37, without glucose",1.081
same,EtBr fluorescence (Channel Cycling A.530/585hp),"[3]; cycle 38, + glucose",1.174
same,EtBr fluorescence (Channel Cycling A.530/585hp),"[3]; cycle 38, without glucose",1.066
same,EtBr fluorescence (Channel Cycling A.530/585hp),"[3]; cycle 39, + glucose",1.096
same,EtBr fluorescence (Channel Cycling A.530/585hp),"[3]; cycle 39, without glucose",1.058
same,EtBr fluorescence (Channel Cycling A.530/585hp),"[3]; cycle 40, + glucose",1.115
same,EtBr fluorescence (Channel Cycling A.530/585hp),"[3]; cycle 40, without glucose",1.043
same,EtBr fluorescence (Channel Cycling A.530/585hp),"[3]; cycle 41, + glucose",1.134
same,EtBr fluorescence (Channel Cycling A.530/585hp),"[3]; cycle 41, without glucose",1.067
same,EtBr fluorescence (Channel Cycling A.530/585hp),"[3]; cycle 42, + glucose",1.162
same,EtBr fluorescence (Channel Cycling A.530/585hp),"[3]; cycle 42, without glucose",1.058
same,EtBr fluorescence (Channel Cycling A.530/585hp),"[3]; cycle 43, + glucose",1.125
same,EtBr fluorescence (Channel Cycling A.530/585hp),"[3]; cycle 43, without glucose",1.031
same,EtBr fluorescence (Channel Cycling A.530/585hp),"[3]; cycle 44, + glucose",1.108
same,EtBr fluorescence (Channel Cycling A.530/585hp),"[3]; cycle 44, without glucose",1.002
same,EtBr fluorescence (Channel Cycling A.530/585hp),"[3]; cycle 45, without glucose",0.9943
same,EtBr fluorescence (Channel Cycling A.530/585hp),"[3]; cycle 46, without glucose",1.025
same,EtBr fluorescence (Channel Cycling A.530/585hp),"[3]; cycle 47, without glucose",1.03
same,EtBr fluorescence (Channel Cycling A.530/585hp),"[3]; cycle 48, without glucose",1.056
same,EtBr fluorescence (Channel Cycling A.530/585hp),"[3]; cycle 49, without glucose",1.07
same,EtBr fluorescence (Channel Cycling A.530/585hp),"[3]; cycle 50, without glucose",1.062
same,EtBr fluorescence (Channel Cycling A.530/585hp),"[3]; cycle 51, without glucose",1.026
same,EtBr fluorescence (Channel Cycling A.530/585hp),"[3]; cycle 52, without glucose",1.029
same,EtBr fluorescence (Channel Cycling A.530/585hp),"[3]; cycle 53, without glucose",1.04
same,EtBr fluorescence (Channel Cycling A.530/585hp),"[3]; cycle 54, without glucose",1.019
same,EtBr fluorescence (Channel Cycling A.530/585hp),"[3]; cycle 55, without glucose",0.9589
same,EtBr fluorescence (Channel Cycling A.530/585hp),"[3]; cycle 56, without glucose",0.9927
same,EtBr fluorescence (Channel Cycling A.530/585hp),"[3]; cycle 57, without glucose",1.017
same,EtBr fluorescence (Channel Cycling A.530/585hp),"[3]; cycle 58, without glucose",0.9905
same,EtBr fluorescence (Channel Cycling A.530/585hp),"[3]; cycle 59, without glucose",1.041
same,EtBr fluorescence (Channel Cycling A.530/585hp),"[3]; cycle 60, without glucose",1.02
same,EtBr fluorescence (Channel Cycling A.530/585hp),"[3]; cycle 61, without glucose",1.0374
same,MIC,[4],50 µg/mL and 96.3 µM
same,MIC,[5],> 200 µg/mL and > 385 µM
